{"source": "patent US20260272998A1", "about": "“CHEMICALLY-MODIFIED MICROORGANISM CONTAINING A SUPEROXIDE DISMUTASE MIMIC INORGANIC COMPLEX AND USE THEREOF FOR TREATING INFLAMMATORY DISEASES” (INSTITUT NATIONAL DE RECHERCHE POUR L'AGRICULTURE, …, priority 2023, published 2026)", "key": {"[1]": {"tested_on": "intestinal epithelial cells and macrophages", "details": "cited from earlier work"}, "[2]": {"tested_on": "Lactobacillus plantarum MD007 strain", "method": "The Lactobacillus plantarum MD007 strain is grown in MRS containing D-alanine (200 μg/mL) at 37° C.\nAn overnight culture is used to inoculate fresh medium in order to get an OD600 nm of 0.2, and cells are grown to an OD600 nm of 0.7 and are washed three times D-alanine free MRS medium. The washed bacteria are incubated in medium without D-alanine for 3 h at 37° C. before SOD mimic loading. After alanine starvation, the bacteria are washed three times with Hepes (0.1 M, pH 7.4) to reach a concentration about 10^9 bacteria per 200 μL.\nAfter removal of the culture medium supernatant, bacteria are incubated with Hepes (0.1 M, pH 7.4) only, or with the tested compounds (Mn1 or Mn1C) at the desired concentration in the same buffer for two or twenty-four hours, at 37° C. Mn1C, Mn1 solutions are prepared extemporaneously to prevent degradation and manganese oxidation reactions. After cultures centrifugation and washing with Hepes (0.1 M, pH 7.4), the bacteria are resuspended in Hepes 0.1 M containing 16% glycerol to reach a concentration about 10^9 bacteria per 200 μL. […]\nTo assess bacteria viability, the overnight culture and the frozen vials are controlled by CFU (colony forming unit) test by diluting the preparation in PBS by serial 1/10 dilution and plating a known volume of the dilutions on the corresponding medium. […] Colonies are then counted by visual observation."}, "[3]": {"details": "McCord and Fridovich assay; cited from earlier work"}, "[4]": {"tested_on": "DBNS-induced colitis murine model", "details": "administered orally in a carbonate buffer; cited from earlier work"}}, "note": "“Also recorded” adds a separate entry of the source.", "data": [{"smiles": "Cn1ccnc1CNCCN(Cc1ccccc1O)Cc1nccn1C.[Mn+2]", "note": "[Mn1]", "values": [{"measurement": "antioxidant and anti-inflammatory effects on cells", "setting": "[1]", "value": "antioxidant and anti-inflammatory effects"}, {"measurement": "cell viability of loaded bacteria (CFU)", "setting": "[2]", "value": "does not affect cell viability"}, {"measurement": "kcat for superoxide dismutation", "setting": "[3]", "value": "7.10^6 M^−1·s^−1"}, {"measurement": "anti-inflammatory activity in DNBS-induced colitis (weight variation, macroscopic scores)", "setting": "[4]", "value": "exert an intracellular anti-inflammatory activity in vivo; also recorded: ameliorates DNBS-induced colitis"}]}]}
